pKi: −log10 of the molar value.
Molecular target: T1, HEK-293 cell membranes containing stable cloned human and rat GPR-14 (UniProt Q9UKP6)
T1 sequence (Q9UKP6 1-389): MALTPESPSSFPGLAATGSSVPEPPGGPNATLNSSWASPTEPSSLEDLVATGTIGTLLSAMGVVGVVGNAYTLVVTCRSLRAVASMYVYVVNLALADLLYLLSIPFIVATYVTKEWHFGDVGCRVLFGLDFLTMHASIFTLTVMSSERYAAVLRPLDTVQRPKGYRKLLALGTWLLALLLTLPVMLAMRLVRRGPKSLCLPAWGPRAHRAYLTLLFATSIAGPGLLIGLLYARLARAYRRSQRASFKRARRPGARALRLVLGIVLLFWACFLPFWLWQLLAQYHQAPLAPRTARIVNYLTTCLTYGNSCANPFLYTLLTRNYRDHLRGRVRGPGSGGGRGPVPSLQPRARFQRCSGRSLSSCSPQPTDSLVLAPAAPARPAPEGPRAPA
Assay: Radioligand binding ([125I] h-U-II)
Conditions: [125I] h-U-II 200 pM, species of GPR-14 (human or rat) not given
Protocol: HEK-293 cell membranes containing stable cloned human and rat GPR-14 (20 ug/assay) were incubated with 200 pM [125I] h-U-II (200 Ci/mmol^−1 in the presence of increasing concentrations of test compounds in DMSO (0.1 nM to 10 uM), in a final incubation volume of 200 ul (20 mM Tris-HCl, 5 mM MgCl2). Incubation was done for 30 minutes at room temperature followed by filtration GF/B filters with Brandel cell harvester. ^125I labeled U-II binding was quantitated by gamma counting. Nonspecific binding was defined by ^125I U-II binding in the presence of 100 nM of unlabeled human U-II. Analysis of the data was performed by nonlinear least square fitting.

pKi: 6.64
SMILES: CN1CC[C@@H](Oc2cc(NS(=O)(=O)c3cccc4nsnc34)ccc2Cl)C1 [Example 3, (R)-N-[4-Chloro-3-(1-methyl-3-pyr-rolidinyloxy)-phenyl]-ben-zo[1,2,5]thiadiazole-1-sulfonamide]

Reference: patent publication US20040142948A1, “Sulfonamides” (priority 2003, published 2004)
